Measured values from US12534450B2, “Methods and compositions for targeting PD-L1” (Aligos Therapeutics, Inc., priority 2021, dated 2026).

Columns and labels:
PD-1/PD-L1 PPI = PD-1/PD-L1 PPI (Homo sapiens, UniProt Q9NZQ7); test: PDL1/PD1 Binding Assay; details: PDL1-6×His 0.3 nM, PD1-Fc-Avi-Biotin 2.5 nM, Acceptor/Donor beads, Envision reader
Procedure: Compounds to be tested were serially diluted in DMSO, and further diluted in assay buffer (25 mM Hepes pH 7.4, 150 mM NaCl, 0.005% Tween 20, BSA 0.01%). Diluted compounds were added to the wells with final concentration of DMSO at 1%. PDL1-6×His protein was added to the wells, mixed well with compound. The plates were incubated for 30 min at room temperature. PD1-Fc-Avi-Biotin protein was added to the wells. Final concentration of PDL1 and PD1 protein is 0.3 nM and 2.5 nM, respectively. After a binding time of 30 min at room temperature, Anti-6×His Acceptor beads (final concentration 20 ug/ml) were added to the wells, and the incubation continued for 1 h. Streptavidin Donor beads (final concentration 20 ug/mL) were added at reduced light. The plates were sealed with foil and incubated in the dark for additional 1 h or overnight before reading on an Envision reader. The IC50 values were determined by fitting the curves using a four-parameter equation in Graphpad Prism 8.

PD-1/PD-L1 interaction = test: PD-1/PD-L1 NFAT Reporter Assay (co-culture of Jurkat T cells overexpressing PD-1 and PD-L1 expressing CHO cells); type: cell-based; details: co-culture 6 hrs at 37° C., NFAT-mediated luciferase activity
Procedure: Blocking the PD-1/PD-L1 interaction will release the inhibitory signal and results in TCR signaling and NFAT-mediated luciferase activity.
CHO cells expressing surface-bound anti-CD3 antibodies and PD-L1 were first seeded overnight and treated with the compounds. Jurkat cells overexpressing PD-1 and a luciferase construct under NFAT promoter were then immediately seeded on the monolayer of CHO cells. The co-culture was then incubated for 6 hrs at 37° C. Luciferase activity was assessed by adding the ONE-Glo reagent and measuring luminescence with a plate reader. EC50 values were determined from the fit of the dose-response curves.

Chain of PD-1/PD-L1 PPI (Q9NZQ7 19-238 limits assumed): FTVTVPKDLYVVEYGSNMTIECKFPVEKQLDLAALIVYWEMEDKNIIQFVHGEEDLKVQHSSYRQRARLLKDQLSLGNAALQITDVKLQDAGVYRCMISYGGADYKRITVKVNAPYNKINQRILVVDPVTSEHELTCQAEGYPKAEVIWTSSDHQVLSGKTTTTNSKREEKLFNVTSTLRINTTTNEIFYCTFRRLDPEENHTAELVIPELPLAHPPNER

SMILES: COc1nc(-c2cccc(-c3cccc(NC(=O)c4nn(C)c(=O)n(C)c4=O)c3C)c2Cl)cc2c1[C@@H](NC[C@@H]1CCC(=O)N1)CC2 [Compound A-58]
- IC50 (PD-1/PD-L1 PPI): ≤ 10 nM
- EC50 (PD-1/PD-L1 interaction; Homo sapiens, Jurkat, 6 h): ≤ 10 nM

SMILES: COc1nc(-c2cccc(-c3cccc(NC(=O)c4cn(C)c(=O)n(C)c4=O)c3Cl)c2Cl)cc2c1C(N1CC(OC)C1)CC2 [Compound D-1]
- IC50 (PD-1/PD-L1 PPI): ≤ 10 nM
- EC50 (PD-1/PD-L1 interaction; Homo sapiens, Jurkat, 6 h): ≤ 10 nM

SMILES: COc1nc(-c2cccc(-c3cccc(NC(=O)c4cn(C)c(=O)n(C)c4=O)c3F)c2C)cc2c1[C@@H](NC[C@@H]1CCC(=O)N1)CC2 [Compound A-6]
- IC50 (PD-1/PD-L1 PPI): ≤ 10 nM
- EC50 (PD-1/PD-L1 interaction; Homo sapiens, Jurkat, 6 h): 10 to 100 nM

SMILES: COc1nc(-c2cccc(-c3cccc(NC(=O)c4cn(C)c(=O)n(C)c4=O)c3Cl)c2Cl)cc2c1[C@@H](N1CC3(CCNC3=O)C1)CC2 (single isomer, unassigned) [Compound A-21]
- IC50 (PD-1/PD-L1 PPI): ≤ 10 nM
- EC50 (PD-1/PD-L1 interaction; Homo sapiens, Jurkat, 6 h): 100 to 1000 nM

SMILES: CCOC(=O)C1CN([C@H]2CCc3cc(-c4cccc(-c5cccc(NC(=O)c6ccnn(C)c6=O)c5Cl)c4Cl)nc(OC)c32)C1 (single isomer, unassigned) [Compound A-87]
- IC50 (PD-1/PD-L1 PPI): ≤ 10 nM
- EC50 (PD-1/PD-L1 interaction; Homo sapiens, Jurkat, 6 h): 10 to 100 nM

SMILES: COc1nc(-c2cccc(-c3cccc(NC(=O)c4cn(C)c(=O)n(C)c4=O)c3Cl)c2Cl)cc2c1C(N[C@H]1CCOC[C@H]1O)CC2 (stereo partly drawn) [Compound D-7]
- IC50 (PD-1/PD-L1 PPI): ≤ 10 nM
- EC50 (PD-1/PD-L1 interaction; Homo sapiens, Jurkat, 6 h): 10 to 100 nM

SMILES: COc1nc(-c2cccc(-c3cccc(NC(=O)c4ccnn(C)c4=O)c3Cl)c2Cl)cc2c1[C@@H](NC[C@@H]1CCC(=O)N1)CO2 [Compound A-44]
- IC50 (PD-1/PD-L1 PPI): ≤ 10 nM
- EC50 (PD-1/PD-L1 interaction; Homo sapiens, Jurkat, 6 h): 10 to 100 nM

SMILES: COc1nc(-c2cccc(-c3cccc(NC(=O)c4cn(C)c(=O)n(C)c4=O)c3Cl)c2Cl)cc2c1[C@H](N1CC(C(=O)O)C1)CC2 (single isomer, unassigned) [Compound J-4]
- IC50 (PD-1/PD-L1 PPI): ≤ 10 nM
- EC50 (PD-1/PD-L1 interaction; Homo sapiens, Jurkat, 6 h): 100 to 1000 nM

SMILES: COc1nc(-c2cccc(-c3cccc(NC(=O)c4ccnn(C)c4=O)c3C)c2Cl)cc2c1[C@@H](N1CC(C(=O)O)C1)CC2 (single isomer, unassigned) [Compound J-2]
- IC50 (PD-1/PD-L1 PPI): ≤ 10 nM
- EC50 (PD-1/PD-L1 interaction; Homo sapiens, Jurkat, 6 h): ≤ 10 nM

SMILES: COc1nc(-c2cccc(-c3cccc(NC(=O)c4cn(C)c(=O)n(C)c4=O)c3C)c2C)cc2c1C(N1C[C@@H](O)[C@@H]1C)CC2 (stereo partly drawn) [Compound D-19]
- IC50 (PD-1/PD-L1 PPI): ≤ 10 nM
- EC50 (PD-1/PD-L1 interaction; Homo sapiens, Jurkat, 6 h): 100 to 1000 nM

SMILES: COc1nc(-c2cccc(-c3cccc(NC(=O)c4cn(C)c(=O)n(C)c4=O)c3Cl)c2Cl)cc2c1[C@H](N1CC(O)C1)CC2 (single isomer, unassigned) [Compound A-27]
- IC50 (PD-1/PD-L1 PPI): ≤ 10 nM
- EC50 (PD-1/PD-L1 interaction; Homo sapiens, Jurkat, 6 h): ≤ 10 nM

SMILES: COc1nc(-c2c(F)ccc(-c3cccc(NC(=O)c4cn(C)c(=O)n(C)c4=O)c3C)c2F)cc2c1[C@@H](NC[C@@H]1CCC(=O)N1)CC2 [Compound A-70]
- IC50 (PD-1/PD-L1 PPI): ≤ 10 nM
- EC50 (PD-1/PD-L1 interaction; Homo sapiens, Jurkat, 6 h): 10 to 100 nM

SMILES: COc1nc(-c2cccc(-c3cccc(NC(=O)c4c[nH]c(=O)[nH]c4=O)c3C)c2Cl)cc2c1[C@@H](NC[C@@H]1CCC(=O)N1)CC2 [Compound A-54]
- IC50 (PD-1/PD-L1 PPI): ≤ 10 nM
- EC50 (PD-1/PD-L1 interaction; Homo sapiens, Jurkat, 6 h): 10 to 100 nM

SMILES: COc1nc(-c2cccc(-c3cccc(NC(=O)c4cn(C)c(=O)n(C)c4=O)c3C)c2Cl)cc2c1[C@@H](N[C@@H]1CCOC[C@@H]1O)CC2 (single isomer, unassigned) [Compound A-40]
- IC50 (PD-1/PD-L1 PPI): ≤ 10 nM
- EC50 (PD-1/PD-L1 interaction; Homo sapiens, Jurkat, 6 h): ≤ 10 nM

SMILES: COc1nc(-c2cccc(-c3cccc(NC(=O)c4cn(C)c(=O)n(C)c4=O)c3Cl)c2Cl)cc2c1C(N[C@@H]1COC[C@@H]1O)CC2 (stereo partly drawn) [Compound D-4]
- IC50 (PD-1/PD-L1 PPI): ≤ 10 nM
- EC50 (PD-1/PD-L1 interaction; Homo sapiens, Jurkat, 6 h): 10 to 100 nM

SMILES: COc1nc(-c2cccc(-c3cc(F)cc(NC(=O)c4nn(C)c(=O)n(C)c4=O)c3C)c2Cl)cc2c1[C@@H](NC[C@@H]1CCC(=O)N1)CC2 [Compound A-62]
- IC50 (PD-1/PD-L1 PPI): ≤ 10 nM
- EC50 (PD-1/PD-L1 interaction; Homo sapiens, Jurkat, 6 h): ≤ 10 nM

SMILES: COc1nc(-c2cccc(-c3cccc(NC(=O)c4cn(C)c(=O)n(C)c4=O)c3Cl)c2Cl)cc2c1C(N1CCC3(CN(C(=O)OC(C)(C)C)C3)C1)CC2 (centres unmarked) [Compound A-119]
- IC50 (PD-1/PD-L1 PPI): ≤ 10 nM
- EC50 (PD-1/PD-L1 interaction; Homo sapiens, Jurkat, 6 h): 100 to 1000 nM

SMILES: COc1nc(-c2cccc(-c3cccc(NC(=O)c4cn(C)c(=O)n(C)c4=O)c3C)c2Cl)cc2c1C(NC[C@@H]1CCC(=O)N1)C(O)C2 (single isomer, unassigned) [Compound A-125]
- IC50 (PD-1/PD-L1 PPI): ≤ 10 nM
- EC50 (PD-1/PD-L1 interaction): > 5000 nM

SMILES: COc1nc(-c2cccc(-c3cccc(NC(=O)c4cn(C)c(=O)n(C)c4=O)c3Cl)c2Cl)cc2c1[C@@H](N1CC3(COCC(=O)N3)C1)CC2 (single isomer, unassigned) [Compound A-133]
- IC50 (PD-1/PD-L1 PPI): 10 to 100 nM
- EC50 (PD-1/PD-L1 interaction; Homo sapiens, Jurkat, 6 h): 100 to 1000 nM

SMILES: COc1nc(-c2cccc(-c3cccc(NC(=O)c4cn(C)c(=O)n(C)c4=O)c3C)c2F)cc2c1[C@@H](N[C@@H]1CCOC[C@@H]1O)CC2 (single isomer, unassigned) [Compound A-42]
- IC50 (PD-1/PD-L1 PPI): ≤ 10 nM
- EC50 (PD-1/PD-L1 interaction; Homo sapiens, Jurkat, 6 h): 10 to 100 nM

SMILES: COc1nc(-c2cccc(-c3cccc(NC(=O)c4nn(C)c(=O)n(C)c4=O)c3C)c2C)cc2c1[C@H](N[C@@H]1COC[C@H]1O)CC2 (single isomer, unassigned) [Compound A-104]
- IC50 (PD-1/PD-L1 PPI): ≤ 10 nM
- EC50 (PD-1/PD-L1 interaction; Homo sapiens, Jurkat, 6 h): 10 to 100 nM

SMILES: COc1nc(-c2cccc(-c3cccc(NC(=O)c4nn(C)c(=O)n(C)c4=O)c3C)c2Cl)cc2c1[C@@H](N[C@@H]1COC[C@@H]1O)CC2 (single isomer, unassigned) [Compound A-109]
- IC50 (PD-1/PD-L1 PPI): ≤ 10 nM
- EC50 (PD-1/PD-L1 interaction; Homo sapiens, Jurkat, 6 h): ≤ 10 nM

SMILES: COc1nc(-c2cccc(-c3cccc(NC(=O)c4cn(C)c(=O)n(C)c4=O)c3C)c2C)cc2c1[C@@H](NC[C@@H]1CCC(=O)N1)CO2 (single isomer, unassigned) [Compound A-49]
- IC50 (PD-1/PD-L1 PPI): ≤ 10 nM
- EC50 (PD-1/PD-L1 interaction; Homo sapiens, Jurkat, 6 h): 10 to 100 nM

SMILES: COc1nc(-c2cccc(-c3cccc(NC(=O)c4nn(C)c(=O)n(C)c4=O)c3Cl)c2Cl)cc2c1[C@@H](N[C@@H]1COC[C@H]1O)CC2 (single isomer, unassigned) [Compound A-99]
- IC50 (PD-1/PD-L1 PPI): ≤ 10 nM
- EC50 (PD-1/PD-L1 interaction; Homo sapiens, Jurkat, 6 h): 100 to 1000 nM

SMILES: CCOC(=O)C1CN([C@H]2CCc3cc(-c4cccc(-c5cccc(NC(=O)c6ccnn(C)c6=O)c5C)c4Cl)nc(OC)c32)C1 (single isomer, unassigned) [Compound A-88]
- IC50 (PD-1/PD-L1 PPI): ≤ 10 nM
- EC50 (PD-1/PD-L1 interaction; Homo sapiens, Jurkat, 6 h): 10 to 100 nM

SMILES: COc1nc(-c2cccc(-c3cccc(NC(=O)c4cn(C)c(=O)n(C)c4=O)c3Cl)c2Cl)cc2c1[C@@H](N1CC3(CCC(=O)N3)C1)CC2 (single isomer, unassigned) [Compound A-20]
- IC50 (PD-1/PD-L1 PPI): ≤ 10 nM
- EC50 (PD-1/PD-L1 interaction; Homo sapiens, Jurkat, 6 h): 10 to 100 nM

SMILES: COc1nc(-c2cccc(-c3cccc(NC(=O)c4cn(C)c(=O)n(C)c4=O)c3Cl)c2Cl)cc2c1[C@@H](N1CC3(CNC(=O)C3)C1)CC2 (single isomer, unassigned) [Compound A-129]
- IC50 (PD-1/PD-L1 PPI): ≤ 10 nM
- EC50 (PD-1/PD-L1 interaction; Homo sapiens, Jurkat, 6 h): ≤ 10 nM

SMILES: COc1nc(-c2cccc(-c3cccc(NC(=O)c4cn(C)c(=O)n(C)c4=O)c3Cl)c2Cl)cc2c1C(N1CC3(CCN(C(C)=O)C3)C1)CC2 (centres unmarked) [Compound H-1]
- IC50 (PD-1/PD-L1 PPI): ≤ 10 nM
- EC50 (PD-1/PD-L1 interaction; Homo sapiens, Jurkat, 6 h): ≤ 10 nM

SMILES: COc1nc(-c2cccc(-c3cccc(NC(=O)c4ccnn(C)c4=O)c3C)c2Cl)cc2c1[C@@H](NC[C@@H]1CCC(=O)N1)CO2 [Compound A-46]
- IC50 (PD-1/PD-L1 PPI): ≤ 10 nM
- EC50 (PD-1/PD-L1 interaction; Homo sapiens, Jurkat, 6 h): ≤ 10 nM

SMILES: COc1nc(-c2cccc(-c3cccc(NC(=O)c4cn(C)c(=O)n(C)c4=O)c3Cl)c2C)cc2c1[C@H](N[C@@H]1CCOC[C@@H]1O)CC2 (single isomer, unassigned) [Compound A-31]
- IC50 (PD-1/PD-L1 PPI): ≤ 10 nM
- EC50 (PD-1/PD-L1 interaction; Homo sapiens, Jurkat, 6 h): 1000 to 10000 nM

SMILES: COc1nc(-c2cccc(-c3cccc(Nc4nccc5cccnc45)c3Cl)c2Cl)cc2c1[C@@H](NC[C@@H]1CCC(=O)N1)CC2 [Compound B-3]
- IC50 (PD-1/PD-L1 PPI): ≤ 10 nM
- EC50 (PD-1/PD-L1 interaction; Homo sapiens, Jurkat, 6 h): 100 to 1000 nM
